From article PMC5594551, “Heterogeneous drug penetrance of veliparib and carboplatin measured in triple negative breast tumors” (Breast Cancer Research : BCR, 2017)
Where “and” joins values, the source holds several entries; their conditions need not be identical. Equal entries are not always repeated.

Assays:
[1] = Carboplatin quantified by LC-MS in mouse plasma and TNBC xenograft tissue; type: in vivo, beige SCID mice
Protocol: Forty-one beige DF mice with severe combined immunodeficiency (SCID) (Fox Chase, strain R035948:1) were implanted with 10^6 MDA-MB-231 (N = 10), HCC70 N = 21) or MDA-MB-436 (N = 10) TNBC cells obtained from the ATCC bilaterally in the mammary fat pads (Fig. 1). When the TNBC xenograft tissue size exceeded 200 mm^3, the mice were randomized across the treatment cohorts. Animals were randomized into veliparib low dose (20 mg/kg), veliparib high dose (60 mg/kg) or placebo + C, introduced via oral gavage three times daily for 3 days (all but the two DCE-MRI study mice). Carboplatin at 60 mg/kg was administered intravenously on day 1 and day 2. […]
Thirty-nine mice were euthanized approximately 3 h after the last dose of veliparib and 24 h after the last dose of carboplatin; two mice used in the DCE-MRI pilot were euthanized 1.5 h after single-dose administration of veliparib and carboplatin (Fig. 1). […] A separate fresh-frozen portion of each tissue per animal was ground for quantification of veliparib and carboplatin by LC-MS. […]
Plasma samples (50 μl ) were prepared using protein precipitation with acetonitrile. […] Volume and weight of the pulverized tumor was determined. […]
Veliparib/carboplatin quantification: […]
Concentration of veliparib in tissues were calculated in mg/g and transferred to mg/L by estimating the average density of the livers, muscles and tumors. […]

[2] = test system: PARP1; settings: read-out: IC50 for PARP1 inhibition; ref [3], [31]; cited from earlier work
[3] = parameters: method as in PMID 19526240; settings: ref [32]; cited from earlier work
[4] = Veliparib spatial distribution by MALDI-MSI in TNBC xenograft tumor and muscle sections; type: in vivo, beige SCID mice
Protocol: Thirty-nine mice were euthanized approximately 3 h after the last dose of veliparib and 24 h after the last dose of carboplatin; two mice used in the DCE-MRI pilot were euthanized 1.5 h after single-dose administration of veliparib and carboplatin (Fig. 1). Bilateral xenograft tumors and liver and muscle (quadriceps) tissues were harvested. Tissues were cut into three pieces and either embedded in optimum cutting temperature (OCT) formulation or were directly snap frozen in liquid-nitrogen-cooled isopentane and stored at − 80 °C until analysis. […] A separate fresh-frozen portion of each tissue per animal was ground for quantification of veliparib and carboplatin by LC-MS. […]
Heterogeneity of drug distribution of veliparib in the tissues evaluated by MALDI-MSI was assessed by comparing the relative standard deviation in the whole tissue of muscle and tumor cells, and by comparing the mean pixel intensity of each immunohistochemically (IHC)-defined region of interest capturing the whole tumor region, and regions of cellularity/necrosis using one-way ANOVA. […]
By spiking different concentrations of veliparib on placebo treated mouse TNBC xenograft tissues, a rough estimate of the detection range of veliparib was determined to be 100 fmol-100 pmol absolute drug amount, Figure S2 left) with saturation of the signal occurring above 1 nmol/ μL. […]

[5] = test system: metastatic BRCA-mutated breast cancer; parameters: method as in ref [52] = [52]; 52. Somlo G Phase II trial of single agent PARP inhibitor ABT-888 (veliparib [vel]) followed by postprogression therapy of vel with carboplatin (carb) in patients (pts) with stage BRCA-associated meta; settings: veliparib 400 mg BID until disease progression; ref [52]; cited from earlier work
[6] = test system: TNBC; parameters: method as in ref [4] = [4]; 4. Rugo HS, et al. Veliparib/carboplatin plus standard neoadjuvant therapy for high-risk breast cancer: first efficacy results from the I-SPY 2 TRIAL [abstract]. Cancer Res. 2013;73:Abstract nr S5_02.; settings: veliparib 50 mg BID combined with carboplatin, neoadjuvant; ref [4]; cited from earlier work

Compound | Carboplatin in TNBC xenograft tissues ([1]; 24 h after administration, MALDI-MSI and LC-MS) | Median conc. (RSE %) ([1]; plasma, 0.6 h after carboplatin 60 mg/kg intravenously, LC-MS) | IC50 [2] [nM] | Protein binding capacity in human plasma [3] [%] | Ion intensity tumor/muscle (RSE %) ([4]; cellular tumors (ROI)) | Ion intensity tumor/muscle (RSE %) ([4]; necrotic tumors (ROI)) | Patients with partial response [5] [%] | TN patients without pathologic complete response (pCR) [6]
N.N.O=C([O-])C1(C(=O)[O-])CCC1.[Pt+2] [carboplatin] | undetectable | 24 mg/L and 24 (20) mg/L |  |  |  |  |  | 
C[C@]1(c2nc3c(C(N)=O)cccc3[nH]2)CCCN1 [veliparib] |  |  | […] | […] | 1.01 (85%) | 1.63 (70%) | 20 | approximately 42%
